Test results published in PubChem BioAssay (NCI).
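48-hour exposure; five concentrations; linearly interpolated endpoints. Definition used: TGI = concentration required for complete inhibition of growth.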 Where a SMILES comes first, the peptide text is derived from it.

What was measured:
Test in all cases: growth of human tumour cells (NCI), 48 h
COLO 205 colon = test system: COLO 205 colon
HL-60(TB) leukemia = test system: HL-60(TB) leukemia
SK-MEL-2 melanoma = test system: SK-MEL-2 melanoma
UACC-257 melanoma = test system: UACC-257 melanoma
DLD-1 colon = test system: DLD-1 colon
DMS 114 small cell lung = test system: DMS 114 small cell lung
DMS 273 small cell lung = test system: DMS 273 small cell lung
HOP-18 NSCLC = test system: HOP-18 NSCLC
KM20L2 colon = test system: KM20L2 colon
LXFL 529 NSCLC = test system: LXFL 529 NSCLC
M19-MEL melanoma = test system: M19-MEL melanoma
SNB-78 CNS = test system: SNB-78 CNS

Row | SMILES | TGI (COLO 205 colon) [µM] | TGI (HL-60(TB) leukemia) [µM] | TGI (SK-MEL-2 melanoma) [µM] | TGI (UACC-257 melanoma) [µM] | TGI (DLD-1 colon) [µM] | TGI (DMS 114 small cell lung) [µM] | TGI (DMS 273 small cell lung) [µM] | TGI (HOP-18 NSCLC) [µM] | TGI (KM20L2 colon) [µM] | TGI (LXFL 529 NSCLC) [µM] | TGI (M19-MEL melanoma) [µM] | TGI (SNB-78 CNS) [µM]
1 | CSC1=C(SC)SC(=C2SC3=C(SC(=C4SCCS4)S3)S2)S1 | > 100 | > 100 | > 100 | > 100 | – | – | – | – | – | – | – | –
2 | CCN(CC)c1ccc2cc(-c3nnc(-c4ccccc4)o3)c(=O)oc2c1 | > 100 | 70.6 | > 87.2 | > 100 | – | – | – | – | – | – | – | –
3 | Cc1ccc2c(c1CCCC(C)(C)O)C(=O)C(=O)C(C(C)C)=C2O | > 100 | > 100 | > 100 | – | > 100 | > 100 | > 100 | > 100 | > 100 | > 100 | > 100 | –
4 | CC1=C(C(N)=O)C(c2ccncc2)C(C#N)=C2SCC(=O)N12 (stereo not drawn) | > 100 | > 100 | > 100 | > 100 | – | – | – | – | – | – | – | –
5 | CC(=O)c1sc2c(c1OC(=O)c1cccs1)c(=O)n(-c1ccccc1)c(=S)n2-c1ccccc1 | 32.5 | 52.2 | – | 43.9 | – | – | – | – | – | – | – | –
6 | C[C@]12CCC(=O)C=C1CC[C@@H]1C2CC[C@]2(C)c3nn(-c4ccc(F)cc4)nc3CC12 (stereo partly drawn) | > 100 | > 100 | – | > 100 | – | – | – | – | – | – | – | –
7 | CN(C)C(=O)NCCN1CCCCCc2ccccc21 | > 100 | > 100 | > 100 | > 100 | – | – | – | – | – | – | – | –
8 | CN(Nc1cc(=O)[nH]c(=O)[nH]1)c1ccccc1 | > 100 | > 100 | > 100 | > 100 | – | – | – | – | – | – | – | –
9 | CC(=O)Oc1ccccc1-c1cc2ccccc2oc1=O | > 100 | > 100 | > 100 | > 100 | – | – | – | – | – | – | – | –
10 | NC(CCC(=O)NC(CSC(=O)N(O)c1ccc(Br)cc1)C(=O)NCC(=O)O)C(=O)O (stereo not drawn) | > 100 | > 100 | > 100 | > 100 | > 100 | > 100 | > 100 | > 100 | > 100 | > 100 | > 100 | > 100
11 | Clc1ccc(Cl)c(Nc2ccnc(SCc3ccccc3)n2)c1 | > 100 | – | > 100 | > 100 | – | – | – | – | – | – | – | –
12 | Cc1ccc2nc(-c3ccc(N)c(I)c3)sc2c1 | 30.9 | 51 | 40.8 | > 100 | – | – | – | – | – | – | – | –
13 | CCC(C)C(NC(=O)C(CCCCN)NC(=O)C(NC(=O)C(CCC(N)=O)NC(=O)C(N)CCCNC(=N)N)C(C)CC)C(=O)NC(Cc1c[nH]c2ccccc12)C(=O)NC(Cc1ccccc1)C(=O)NC(CCC(N)=O)C(=O)NC(CC(N)=O)C(=O)NC(CCCNC(=N)N)C(=O)NC(CCCNC(=N)N)C(=O)NC(CCSC)C(=O)NC(CCCCN)C(=O)NC(Cc1c[nH]c2ccccc12)C(=O)NC(CCCCN)C(=O)NC(CCCCN)C(=O)N1CCCC1C(=O)NC(C)C(=O)NC(CCCCN)C(=O)NC(CCCNC(=N)N)C(=O)NC(CCCCN)C(=O)NC(CC(C)C)C(=O)NC(Cc1ccccc1)C(=O)NCC(=O)O (stereo not drawn) (H-RQIKIWFQNRRMKWKKPAKRKLFG-OH; configuration not given here) | > 25 | 17.6 | > 25 | > 25 | – | – | – | – | – | – | – | –
14 | CCOC(=O)c1nc2c(Cl)c3ncccc3cc2[nH]c1=O | > 100 | > 100 | > 100 | > 100 | – | – | – | – | – | – | – | –
15 | CCOC(=O)C1=C(Nc2cccc(OC)c2)OCC1=O | > 100 | > 100 | > 100 | > 100 | – | – | – | – | – | – | – | –
16 | O=C(NCCCNC(=O)c1ccc2c(O)c(O)ccc2c1)c1ccc2c(O)c(O)ccc2c1 | 50.6 | > 100 | > 81.6 | 53 | – | – | – | – | – | – | – | –
17 | O=C1/C(=C\c2ccc([N+](=O)[O-])o2)SC2N=C(COc3ccc(Cl)cc3)NN12 (stereo not drawn) | 13.3 | 6.03 | 37.2 | 16.9 | – | – | – | – | – | – | – | –
18 | CO[C@H]1[C@@H](O)[C@@H](C)O[C@@H](O[C@H]2CC[C@@]3(C)[C@H](CC[C@@H]4[C@@H]3CC[C@]3(C)[C@@H](C5=CC(=O)OC5)[C@@H](OC(C)=O)C[C@]43O)C2)[C@@H]1O | 0.447 | 0.332 | 0.345 | 0.239 | – | – | – | – | – | – | – | –
19 | O=C(C(=O)N1CCc2ccccc21)c1c[nH]c2ccccc12 | > 10 | > 10 | > 10 | > 10 | – | – | – | – | – | – | – | –
20 | COc1ccc2c(c1)CC[C@@H]1[C@@H]2CC[C@]2(C)C(=O)/C(=C/c3ccc(OC)c(OC)c3)C[C@@H]12 | – | > 100 | > 100 | – | – | – | – | – | – | – | – | –
21 | Cn1ccc(C(=O)NCCOCCNC(=O)c2ccn(C)c(=O)c2O)c(O)c1=O | > 100 | – | > 100 | > 100 | – | – | – | – | – | – | – | –
22 | Cc1cn(C2CC(ON3C(=O)c4ccccc4C3=O)C(CO)O2)c(=O)[nH]c1=O (stereo not drawn) | – | > 10 | > 10 | > 10 | – | – | – | – | – | – | – | –
23 | CC1=C(Br)C(Br)=C(C)S1=O | 5.82 | 18.1 | 32.9 | 32.1 | – | – | – | – | – | – | – | –
24 | N#CSc1nc[nH]c1C(N)=O | > 100 | 6.86 | > 100 | > 100 | – | – | – | – | – | – | – | –
25 | C=CCn1c(=O)n(CC=C)c(=O)n(CC=C)c1=O | > 100 | > 100 | > 100 | > 100 | > 100 | > 100 | > 100 | > 100 | > 100 | > 100 | > 100 | > 100
26 | COC(CN(C(=O)c1ccccc1)C1CCC2(SCCS2)c2[nH]c3ccccc3c21)OC (stereo not drawn) | 59.3 | > 100 | > 100 | 33.5 | – | – | – | – | – | – | – | –
27 | COc1ccnc2c1C(=O)c1nc3ccccc3c3ccnc-2c13 | 0.723 | 0.29 | 4.11 | 0.536 | – | – | – | – | – | – | – | –
28 | CC(=O)N(C(=O)CC(=O)N/N=C\c1ccc(Br)c(N(CCC#N)CCC#N)c1)c1ccc(Cl)cc1 | > 100 | > 100 | – | – | – | – | – | – | – | – | – | –
29 | C[C@H]1[C@H](C)CC[C@]2(C)CC[C@]3(C)C(=C[C@@H](O)[C@@H]4[C@@]5(C)[C@H](O)[C@@H](O)[C@H](O)C(C)(C)[C@@H]5CC[C@]43C)[C@H]12 | > 100 | > 100 | > 100 | > 100 | – | – | – | – | – | – | – | –
30 | COc1ccc(CCNC2=CC(=O)c3ncccc3C2=O)cc1OC | 3.23 | 10.6 | 6.73 | 3.19 | – | – | – | – | – | – | – | –
